In publication PMC12531871, “Indole-2-carboxamides Optimization for Antiplasmodial Activity” (ACS Bio & Med Chem Au, 2025):
Values after ≈ are worked out from the molar mass of the structure shown. Read-outs that look alike come from different tables or passages of the source.

Legend:
[1] = test system: female P. falciparum gametocytes; test: P. falciparum dual gamete formation assay (Pf DGFA), female gametocytes; assay type: cell-based; details: Plasmodium falciparum, read-out: inhibition against female gametocytes
[2] = test system: P. falciparum NF54 strain; test: Antiplasmodial activity against P. falciparum NF54 (SYBR Green, 72 h); assay type: cell-based, Plasmodium falciparum; details: Plasmodium falciparum, NF54, drug-sensitive NF54, strain panel; read-out: IC50 ± SD, NF54
P. falciparum Dd2 strain = test: Antiplasmodial activity against resistant P. falciparum Dd2; assay type: cell-based; details: Plasmodium falciparum
[3] = test system: P. falciparum RF12 strain; test: Antiplasmodial activity against resistant P. falciparum RF12; assay type: cell-based; details: Plasmodium falciparum, read-out: IC50 ± SD, RF12
[4] = test system: P. falciparum field isolates from Brazil; test: Ex vivo drug susceptibility of P. falciparum field isolates; assay type: cell-based, Plasmodium falciparum
[5] = Kinetic solubility at pH 7.4; assay type: physicochemical; details: phosphate-buffered saline, 25 °C, pH 7.4, aqueous buffer, kinetic from dmso stock; read-out: Kinetic solubility (Sol)
Procedure: Kinetic solubility assay was performed using UV–vis detection. […] The samples were filtered using a multiscreen solubility filter plate. The filtrate was diluted by 50% with MeCN. A five-point linearity curve was prepared in PBS/MeCN (1:1, v/v) at 200, 150, 75, 25, and 2.5 μM. Blank, linearity, and test samples (n = 2) were transferred to a UV-readable plate, and the plate was scanned for absorbance. Best-fit calibration curves were constructed using the calibration standards and used to determine the test sample solubility. The experiment was carried out in duplicate. Diethylstilbestrol, Haloperidol, and Diclofenac Sodium were used as reference standards.

[6] = test system: P. falciparum Dd2 (chloroquine resistance); test: Effect of verapamil on inhibitory activity in P. falciparum Dd2; assay type: cell-based; details: Plasmodium falciparum; Dd2, absence of verapamil; read-out: IC50^Dd2 (without VP)
[7] = test system: P. falciparum 3D7 strain (Pf3D7); test: Antiplasmodial activity against P. falciparum 3D7 blood-stage parasites (SYBR Green, 72 h); assay type: cell-based, Plasmodium falciparum; details: Plasmodium falciparum
[8] = test system: male P. falciparum gametocytes; test: P. falciparum dual gamete formation assay (Pf DGFA), male gametocytes; assay type: cell-based; details: Plasmodium falciparum, read-out: inhibition against male gametocytes
Rat hepatocyte stability = assay type: in vitro ADME; details: rat hepatocyte stability
Procedure: The reaction was terminated with the addition of ice-cold MeCN at designated time points. The samples were then centrifuged (4200 rpm) for 20 min at 20 °C, and the supernatant was half diluted in water and then analyzed using LCMS/MS. The % parent compound remaining, half-life (t 1/2), and clearance (CLint) were calculated using standard methodology. The experiment was carried out in duplicate. Diltiazem, 7-Ethoxy Coumarin, Propranolol, and Midazolam were used as reference standards.

P. falciparum 7G8 strain = test: Antiplasmodial activity against resistant P. falciparum 7G8; assay type: cell-based; details: Plasmodium falciparum; resistant strain 7G8; read-out: IC50 ± SD, 7G8
P. falciparum 3D7 clone = test: Ex vivo schizont maturation assay, 3D7 laboratory strain control; assay type: cell-based; details: Plasmodium falciparum, ex vivo assay conditions
[9] = eLogD at pH 7.4, miniaturized shake flask method; assay type: physicochemical; details: 1-octanol/PBS (1:1, v/v), pH 7.4, pH 7.4, miniaturized shake flask method
Procedure: eLogD at pH 7.4 was determined using a miniaturized shake flask method. A solution of a presaturated mixture of 1-octanol and phosphate-buffered saline (PBS) (1:1, v/v) and the test compound (75 μM) was incubated at 25 °C with constant shaking (850 rpm) for 2h. After incubation, the organic and aqueous phases were separated, and samples of each phase were transferred to a plate for dilution. […] The samples were quantitated using LC-MS/MS. The experiment was carried out in duplicate. Propranolol, Amitriptyline, and Midazolam were used as reference standards.

[10] = test system: P. vivax field isolates from Brazil; test: Ex vivo drug susceptibility of P. vivax field isolates; assay type: cell-based; details: Plasmodium vivax, ex vivo
[11] = test system: P. falciparum (3D7 strain) digestive vacuole; test: Digestive vacuole homeostasis, acridine orange fluorescence; assay type: cell-based, Plasmodium falciparum; details: 10 μM, 3 min treatment, isolated parasites
Procedure: The sample was incubated for 40 min at 37 °C. […] Fluorescence was measured in a Hitachi F-7000 fluorimeter (Tokyo, Japan) by continuous measurement of the fluorescence (λex = 488 nm; λem = 560 nm) at 37 °C. Experiments were performed in triplicate.

P. falciparum K1 strain = test: Antiplasmodial activity against resistant P. falciparum K1; assay type: cell-based; details: Plasmodium falciparum
[12] = Resazurin assay for cytotoxicity in HepG2 cells; assay type: cell-based, human; details: human, HepG2 cells; HepG2 cell line, 72 h, resazurin
Procedure: HepG2 cells were trypsinized, counted, and distributed in a 96-well plate at a density of 30,000 cells per well (180 μL). The plate was incubated at 37 °C and 5% CO2 for 24 h. Following incubation, 20 μL of serial dilutions of the tested compounds were added to the wells, with concentrations ranging from 30 to 0.47 μM. The plate was incubated for an additional 72 h at 37 °C and 5% CO2. Untreated cells served as positive controls, while wells containing only medium were used as negative controls. Postincubation, microscopy was employed to determine the highest compound concentration for treatment results. […] Concentration–response curves were generated, and half-maximal inhibitory concentration (CC50) values were determined using nonlinear regression analysis.

[13] = Human liver microsome stability; assay type: in vitro ADME; details: human, pooled human liver microsomes, human microsomal intrinsic clearance; read-out: hMics, human microsome Clint
Procedure: A solution of the test compounds in phosphate buffer solution (1 μM) was incubated in pooled human or mouse liver microsomes (0.5 mg/mL) for 0, 5, 20, 30, 45, and 60 min at 37 °C in the presence and absence of an NADPH regeneration system (NRS). The tests were conducted by […], India. The reaction was terminated with the addition of ice-cold acetonitrile, containing a […] standard, at designated time points. The sample was centrifuged (4200g) for 20 min at 20 °C and the supernatant was diluted by half in water and then analyzed by LC-MS/MS. The % parent compound remaining, half-life (t 1/2) and clearance (CLint) were calculated using standard methodology. The experiment was carried out in duplicate. Verapamil, diltiazem, phenacetin, and imipramine were used as reference standards.

[14] = test system: P. falciparum TM90-2CB strain; test: Antiplasmodial activity against resistant P. falciparum TM90-2CB; assay type: cell-based; details: Plasmodium falciparum; resistant strain TM90-2CB; read-out: IC50 ± SD, TM90-2CB
[15] = test system: synchronized P. falciparum parasites (3D7 strain); test: P. falciparum asexual blood stage-specificity assay (8 h exposures); assay type: cell-based, Plasmodium falciparum
[16] = test system: P. falciparum 3D7 (chloroquine-sensitive); test: Effect of verapamil on inhibitory activity in P. falciparum 3D7; assay type: cell-based; details: Plasmodium falciparum

IC50 [2]: 370 ± 60 nM | IC50 (P. falciparum Dd2 strain; 3D7 / DD2, resistant Dd2, in parallel with 3D7, read-out: IC50^Dd2 ± SD): > 10000 nM | IC50 (P. falciparum Dd2 strain; resistant strain Dd2, strain panel, read-out: IC50 ± SD, Dd2): 2600 ± 400 nM | IC50 [3]: 2000 ± 300 nM | IC50 ([4]; Plasmodium falciparum, 7 clinical isolates, ex vivo, read-out: median IC50 (range), P. falciparum (7)): > 10 µM | solubility kinetic at 2 h [5]: 195 µM (≈ 78.5 µg/mL) | IC50 [6]: 4.03 µM | IC50 ([7]; 3D7, 72 h, 3D7 strain, 72 h, SYBR Green, read-out: Pf3D7-IC50): 400 ± 100 nM | IC50 ([7]; 3D7, drug-sensitive 3D7, strain panel, read-out: IC50 ± SD, 3D7): 400 ± 100 nM | IC50 ([7]; 3D7 / DD2, sensitive 3D7, in parallel with K1 and Dd2, read-out: IC50^3D7 ± SD): 400 ± 200 nM | R Heps (Clint) (Rat hepatocyte stability): 2.6 μL/min/10^6 | IC50 (P. falciparum 7G8 strain): 1800 ± 300 nM | EC50 (P. falciparum 3D7 clone; 3D7, read-out: EC50 against the P. falciparum 3D7 clone): 363 nM | IC50 (P. falciparum 3D7 clone; 3D7 control, read-out: P. falciparum 3D7 IC50): 363 nM | logD at 2 h [9]: 1.1 | IC50 ([10]; 9 clinical isolates, read-out: median IC50 (range), P. vivax (9)): 698 nM | EC50 ([10]; read-out: median EC50 against P. vivax field isolates): 698 nM | EC50 ([10]; read-out: range of EC50 across individual P. vivax isolates): 636 to 910 nM | IC50 (P. falciparum K1 strain; 3D7 / K1, resistant K1, in parallel with 3D7, read-out: IC50^K1 ± SD): 4.5 ± 0.2 µM | IC50 (P. falciparum K1 strain; resistant strain K1, strain panel, read-out: IC50 ± SD, K1): 7.3 ± 0.2 µM | microsomal CLint at 1 μM [13]: 11 µL/min/mg | IC50 [14]: 2800 ± 500 nM | IC50 ([16]; 3D7, verapamil experiment, read-out: IC50 in 3D7 strain): ~200 nM | IC50 ([16]; read-out: IC50^3D7 (10 μM VP), 3D7, presence of 10 μM verapamil): 460 nM | IC50 ([16]; 3D7, absence of verapamil, read-out: IC50^3D7 (without VP)): 196 nM
SMILES: O=C(c1cc2cc(C(F)(F)F)ccc2[nH]1)N(Cc1cccnc1)CC1CCNC1 (stereo not shown) [Compound 6f, N-(3-Pyridylmethyl)-N-(pyrrolidin-3-ylmethyl)-5-(trifluoromethyl)-1H-indole-2-carboxamide]
inhibition at 1 µM [1]: 7% | activity against P. falciparum field isolates ([4]; concentration of 10 μM): inactive | inhibition at 1 µM [8]: 28% | effect on digestive vacuole H+ homeostasis (acridine orange fluorescence) [11]: interferes with proton (H^+) homeostasis | CC50 at 72 h [12]: > 30 µM | timing of peak activity (lowest IC50^8h) in asexual blood stages [15]: increased potency on the early ring forms
